Assay results from US7507776B2, “Outdoor weatherable photopolymerizable coatings” (3M Innovative Properties Company, priority 2003, dated 2009).

experiment: 48 hr solubility of benzotriazole UV absorbers in solubilizing monomers; settings: not given
Description: The solubility of the benzotriazole 2-(2-hydroxy-3-alpha-cumyl-5-t-octylphenyl)-5-trifluoromethylbenzotriazole (CGL-139, experimentally available from Ciba Specialty Chemicals) in various solubilizing monomers was determined. Mixtures were made up using 5% increments of the benzotriazole. The benzotriazole and solubilizing monomer to be tested were mixed with gentle heating to 70° C. in a water bath until dissolved, then allowed to stand for 48 hours at room temperature. After 48 hours, each mixture was inspected for benzotriazole precipitation. Solubility was determined to within 5% by recording the highest concentration tested for which there was no precipitation and the lowest concentration for which precipitation occurred. […] Where reported in the literature, the Tg of a polymer made entirely of the tested solubilizing monomer is also given.
Using the method of Example 1, the solubility of a variety of benzotriazoles in isobornyl acrylate was determined. The formula for each of the tested benzotriazoles is set out above. These benzotriazoles can also be represented using the general structure 2-(2-hydroxy-3-R2-5-R3-phenyl)-5-R1-benzotriazole. For CGL-139, R1=trifluoromethyl, R2=alpha-cumyl, and R3=t-octyl. For TINUVIN 928, R1=H, R2=alpha-cumyl, and R3=t-octyl. For Tinuvin 328, R1=H, R2=t-amyl, and R3=t-amyl. For TINUVIN 327, R1=chloro, R2=t-butyl, and R3=t-butyl. For TINUVIN 326, R1=chloro, R2=t-butyl, and R3=methyl. For both TINUVIN 234 and TINUVIN 900, R1=H, R2=alpha-cumyl, and R3=alpha-cumyl.

Which “Benzotriazole 48 hr Solubility, wt. %” value does the source give for `CC(C)(C)CC(C)(C)c1cc(-n2nc3ccc(C(F)(F)F)cc3n2)c(O)c(C(C)(C)c2ccccc2)c1` [CGL-139, 2-(2-hydroxy-3-alpha-cumyl-5-t-octylphenyl)-5-trifluoromethylbenzotriazole] here?
The value was 25-30% wt. %.

Which “Benzotriazole 48 hr Solubility, wt. %” value does the source give for `Cc1cc(-n2nc3ccc(Cl)cc3n2)c(O)c(C(C)(C)C)c1` [TINUVIN 326, 5-chloro-2-(2-hydroxy-3-tert-butyl-5-methylphenyl)-2H-benzotriazole] here?
The value was 5-10% wt. %.

With `CC(C)(C)CC(C)(C)c1cc(-n2nc3ccccc3n2)c(O)c(C(C)(C)c2ccccc2)c1` [TINUVIN 928, 2-(2-hydroxy-3-alpha-cumyl-5-tert-octylphenyl)-2H-benzotriazole] as the molecule, how does the “Benzotriazole 48 hr Solubility, wt. %” value read?
The value was 30-35% wt. %.

same assay, conditions: in isobornyl acrylate; method of Example 1, 48 hours at room temperature

For `CC(C)(C)c1cc(-n2nc3ccc(Cl)cc3n2)c(O)c(C(C)(C)C)c1` [TINUVIN 327, 5-chloro-2-(2-hydroxy-3,5-di-tert-butylphenyl)-2H-benzotriazole], which “Benzotriazole 48 hr Solubility, wt. %” value is on record?
Its value is 5-10% wt. %.

For `CCC(C)(C)c1cc(-n2nc3ccccc3n2)c(O)c(C(C)(C)CC)c1` [TINUVIN 328, 2-(2-hydroxy-3,5-di-tert-amylphenyl)-2H-benzotriazole], which “Benzotriazole 48 hr Solubility, wt. %” value is on record?
The value was 20-25% wt. %.

Which “Benzotriazole 48 hr Solubility, wt. %” value does the source give for `CC(C)(c1ccccc1)c1cc(-n2nc3ccccc3n2)c(O)c(C(C)(C)c2ccccc2)c1` [TINUVIN 900, 2-(2-hydroxy-3,5-di-alpha-cumylphenyl)-2H-benzotriazole] here?
Its value is 0-5% wt. %.
